Key:
estrogen receptor (ER) = molecular target: T1, estrogen receptor (ER) (Homo sapiens, UniProt P03372); experiment: Estrogen Receptor Binding/Competition Assay ([3H]17β-estradiol displacement)
T1 construct: expressed in transfected cells; host or cells: CHO cells (ribosome-free cytosol)
T1 sequence (P03372 1-595): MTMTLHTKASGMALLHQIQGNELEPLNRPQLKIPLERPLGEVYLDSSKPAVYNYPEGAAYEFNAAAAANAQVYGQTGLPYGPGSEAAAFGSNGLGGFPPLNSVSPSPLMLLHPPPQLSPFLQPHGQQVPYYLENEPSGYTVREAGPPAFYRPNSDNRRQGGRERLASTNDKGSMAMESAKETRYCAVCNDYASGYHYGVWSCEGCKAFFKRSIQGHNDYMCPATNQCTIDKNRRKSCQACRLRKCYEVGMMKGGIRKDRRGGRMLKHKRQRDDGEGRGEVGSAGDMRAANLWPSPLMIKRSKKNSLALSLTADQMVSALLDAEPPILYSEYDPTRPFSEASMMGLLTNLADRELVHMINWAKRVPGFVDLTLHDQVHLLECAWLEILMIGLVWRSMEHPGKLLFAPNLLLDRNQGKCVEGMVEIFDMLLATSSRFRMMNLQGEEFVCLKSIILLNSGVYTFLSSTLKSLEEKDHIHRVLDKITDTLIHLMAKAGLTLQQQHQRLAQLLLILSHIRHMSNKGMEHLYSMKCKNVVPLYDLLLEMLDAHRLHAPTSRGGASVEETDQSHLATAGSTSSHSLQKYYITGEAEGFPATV

estrogen receptor = molecular target: T2, estrogen receptor (Homo sapiens, UniProt P03372); experiment: Transfection Assay; format: cell-based
T2 sequence (P03372 1-595): T1 sequence (P03372 1-595)

With Cc1c(-c2ccc(O)cc2)n(C(=O)c2ccc(OCCN3CCCCC3)cc2)c2ccc(O)cc12 [Example No. 2, [5-Hydroxy-2-(4-hydroxy-phenyl)-3-methyl-indol-1-yl][4-(2-piperidin-1-yl-ethoxy)-phenyl]-methanone] the melting point was 127 to 130 °C, the IC50 (estrogen receptor (ER)) was 200 nM and the “Transfection Assay % Control” value (estrogen receptor; Concentration 1 × 10^−6 M + 1 nM estradiol) was 13%. The “Transfection Assay % Control” value (estrogen receptor; Concentration 1 × 10^−6 M, compound alone) was 0%.
For Cc1c(-c2ccc(OCc3ccccc3)cc2)n(C(=O)c2ccc(OCCN3CCCCC3)cc2)c2ccc(OCc3ccccc3)cc12 [compound 1, [5-Benzyloxy-2-(4-benzyloxy-phenyl)-3-methyl-indol-1-yl]-[4-(2-piperidin-1-yl-ethoxy)-phenyl]-methanone], the melting point was 48 to 51 °C.

— patent US6380185B1, “N-substituted benzoyl indoles as estrogenic agents” (American Home Products Corporation, priority 1999, dated 2002)
